Read-outs that look alike come from different tables or passages of the source.
What was measured:
[1] = target: T1, Glucocorticoid Receptor (Homo sapiens, UniProt P04150); test: Trans-Activation Modulation of Glucocorticoid Receptor (GRAMMER), MMTV-LUC reporter gene in A549 cells; format: cell-based; conditions: Table 1; for Emax: A549, A549 cells, read-out: Transactivation A549 Cells GRAMMER Emax; for Emax / Transactivation A549 Cells GRAMMER Emax: Emax relative to 300 nM dexamethasone; for EC50: inflection point, read-out: Transactivation A549 Cells GRAMMER IP; for EC50 / Transactivation A549 Cells GRAMMER Emax: A549 cells
T1 construct: These cells express large amount of the GR and are very responsive to GC treatment; endogenous in cells; host or cells: A549 cells transiently transfected with the MMTV-LUC reporter
T1 sequence (P04150 1-777): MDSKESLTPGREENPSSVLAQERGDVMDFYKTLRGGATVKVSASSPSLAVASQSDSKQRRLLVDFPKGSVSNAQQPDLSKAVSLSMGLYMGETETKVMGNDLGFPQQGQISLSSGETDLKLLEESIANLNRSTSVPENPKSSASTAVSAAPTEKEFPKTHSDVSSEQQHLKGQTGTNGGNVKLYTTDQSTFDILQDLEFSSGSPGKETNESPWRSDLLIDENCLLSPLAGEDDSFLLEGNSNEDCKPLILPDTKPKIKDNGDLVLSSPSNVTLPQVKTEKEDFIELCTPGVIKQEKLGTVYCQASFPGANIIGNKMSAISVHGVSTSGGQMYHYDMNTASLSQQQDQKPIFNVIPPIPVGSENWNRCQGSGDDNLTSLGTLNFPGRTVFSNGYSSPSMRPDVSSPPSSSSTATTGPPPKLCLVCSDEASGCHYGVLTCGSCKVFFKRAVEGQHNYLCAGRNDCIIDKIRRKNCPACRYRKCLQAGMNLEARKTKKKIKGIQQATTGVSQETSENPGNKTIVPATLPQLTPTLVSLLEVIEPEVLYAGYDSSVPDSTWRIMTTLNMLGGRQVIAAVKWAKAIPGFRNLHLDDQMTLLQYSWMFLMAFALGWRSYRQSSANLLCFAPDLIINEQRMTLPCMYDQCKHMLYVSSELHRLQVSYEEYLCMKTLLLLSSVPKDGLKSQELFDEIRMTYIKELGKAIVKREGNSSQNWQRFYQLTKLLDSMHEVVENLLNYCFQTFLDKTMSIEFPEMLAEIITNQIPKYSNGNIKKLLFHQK
How it was run: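 Luciferase from a transiently transfected MMTV-LUC reporter was measured after 24 h compound exposure (≤1% DMSO) in A549 or MDA-MB-453 cells. For antagonism, the decrease of 10 nM dexamethasone-induced signal was calculated. For agonism, Emax was referenced to 300 nM dexamethasone.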

[2] = target: T2, human GR (Homo sapiens, UniProt P04150); test: Transrepression Assay (GITAR), TNFα-β-lactamase reporter gene in U937 cells; format: cell-based; conditions: for GITAR Greater than by GRAMMER % SEP: GITAR Emax minus GRAMMER Emax; for EC50: inflection point, read-out: Transrepression U937 Cells GITAR IP; for EC50 / Transrepression U937 Cells GITAR Emax: U937 cells
T2 construct: U937 cells contain an endogenous glucocorticoid receptor (GR); endogenous in cells; host or cells: U937 cells stably transfected with the TNF-alpha promoter/beta-lactamase reporter
T2 sequence (P04150 1-777): T1 sequence (P04150 1-777)
How it was run: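 Repression of PMA (5 ng/ml final)/LPS (100 ng/ml final)-induced TNF-α promoter activity, read as β-lactamase cleavage of CCF2-AM, in stably transfected U937 cells expressing native GR. Compound added 30-45 min before stimulation, overnight (~18 hr) 37° C; normalized to 100 nM dexamethasone (100%).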

[3] = target: T3, glucocorticoid receptor (GR) (Homo sapiens, UniProt P04150); test: Ligand binding assay (GR BIND), 3H-dexamethasone displacement in MDA-MB-453 cell lysate; conditions: GR BIND Ki, Table 1
T3 sequence (P04150 1-777): T1 sequence (P04150 1-777)

[4] = U-937, U937 cells, activity repressed by 100 nM dexamethasone = 100%, Table 1, read-out: Transrepression U937 Cells GITAR Emax
[5] = U-937, text statement, 100 nM dexamethasone = 100%, read-out: maximal activity in the transrepression assay (GITAR)
[6] = activity repressed by 100 nM dexamethasone = 100%, Table 1

SMILES	Emax [1]	EC50 [1]	GITAR Greater than by GRAMMER % SEP ([2]; Table 1)	Emax [2, 4]	Emax [2, 5]	EC50 ([2]; Table 1)	Ki [3]	Transactivation A549 Cells GRAMMER Emax [1]	Transrepression U937 Cells GITAR Emax [2, 6]
C[C@H](O)CN(CCC(F)(F)F)C(=O)[C@H]1CCC2=Cc3c(cnn3-c3ccc(F)cc3)C[C@@]21C [Compound 73, (4αR,5S)-1-(4-fluorophenyl)-N-[(2S)-2-hydroxypropyl]-4α-methyl-N-(3,3,3-trifluoropropyl)-1,4,4α,5,6,7-. hexahydrocyclopenta[f]indazole-5-carboxamide]	71.1%	152 nM	18.4%	89.5%	> 5%	137 nM	2.1 nM		
CN(CC(O)C(F)(F)F)C(=O)[C@H]1CCC2=Cc3c(cnn3-c3ccccc3)C[C@@]21C (stereo partly drawn) [Compound 74, (4αR,5S)-N,4α-dimethy1-1-phenyl-N-(3,3,3-trifluoro-2-hydroxypropyl)-1,4,4α,5,6,7-hexahydrocyclopenta[f]indazole-5-carboxamide]		276 nM	35.1%	73.9%	> 5%	381 nM	10.6 nM	38.8%	
CN(CC(O)C(F)(F)F)C(=O)[C@H]1CCC2=Cc3c(cnn3-c3ccccc3)C[C@@]21C (stereo partly drawn) [Compound 75, (4αR,5S)-N,4α-dimethyl-1-phenyl-N-(3,3,3-trifluoro-2-hydroxypropyl)-1,4,4α,5 ,6,7-hexahydrocyclopenta[f]indazole-5-carboxamide]		164 nM	18.9%			181 nM	7.6 nM	65.2%	84.0%
CCN(CC(O)C(F)(F)F)C(=O)[C@H]1CCC2=Cc3c(cnn3-c3ccccc3)C[C@@]21C (stereo partly drawn) [Compound 76, (4αR,5S)-N-ethyl-4α-methyl-1-phenyl-N-(3,3,3-trifluoro-2-hydroxypropyl)-1,4,4α,5,6,7-hexahydrocyclopenta[f]indazole-5-carboxamide]	78.2%	314 nM	6.1%	84.3%	> 5%	225 nM	4.2 nM		
CCN(CC(O)C(F)(F)F)C(=O)[C@H]1CCC2=Cc3c(cnn3-c3ccccc3)C[C@@]21C (stereo partly drawn) [Compound 77, (4αR,5S)-N-ethyl-4α-methyl-1-phenyl-N-(3,3,3-trifluoro-2-hydroxypropyl)-1,4,4α,5,6,7-hexahydrocyclopenta[f]indazole-5-carboxamide]		304 nM	10.2%			266 nM	9.8 nM	67.8%	78.0%
CCCN(CC(O)C(F)(F)F)C(=O)[C@H]1CCC2=Cc3c(cnn3-c3ccccc3)C[C@@]21C (stereo partly drawn) [Compound 78, (4αR,5S)-4α-methyl-1-phenyl-N-propyl-N-(3,3,3-trifluoro-2-hydroxypropyl)-1,4,4α,5,6,7-hexahydrocyclopenta[f]indazole-5-carboxamide]	65%	165 nM	21.0%	86%	> 5%	179 nM	2.7 nM		
CCCCN(CC(O)C(F)(F)F)C(=O)[C@H]1CCC2=Cc3c(cnn3-c3ccccc3)C[C@@]21C (stereo partly drawn) [Compound 79, (4αR,5S)-N-butyl-4α-methyl-1-phenyl-N-(3,3,3-trifluoro-2-hydroxypropyl)-1,4,4α,5,6,7-hexahydrocyclopenta[f]indazole-5-carboxamide]	70.7%	180 nM	17.6%	88.3%	> 5%	163 nM	3.8 nM		
CC(C)CN(CC(O)C(F)(F)F)C(=O)[C@H]1CCC2=Cc3c(cnn3-c3ccccc3)C[C@@]21C (stereo partly drawn) [Compound 80, (4αR,5S)-N-isobutyl-4a-methyl-1-phenyl-N-(3,3,3-trifluoro-2-hydroxypropyl)-1,4,4α,5,6,7-hexahydrocyclopenta[f]indazole-5-carboxamide]	70.5%	222 nM	12.8%	83.2%	> 5%	337 nM	3.7 nM		
C[C@]12Cc3cnn(-c4ccccc4)c3C=C1CC[C@@H]2C(=O)N(CC1CC1)CC(O)C(F)(F)F (stereo partly drawn) [Compound 81, (4αR,5S)-N-(cyclopropylmethyl)-4α-methyl-1-phenyl-N-(3,3,3-trifluoro-2-hydroxypropyl)-1,4,4α,5,6,7-hexahydrocyclopenta[f]indazole-5-carboxamide]	67.8%	293 nM	7.8%	75.6%	> 5%	337 nM	3.6 nM		
Cc1ccc(CCN(CC(O)C(F)(F)F)C(=O)[C@H]2CCC3=Cc4c(cnn4-c4ccc(F)cc4)C[C@@]32C)cc1 (stereo partly drawn) [Compound 82, (4αR,5S)-1-(4-fluorophenyl)-4α-methyl-N-[2-(4-methylphenyl)ethyl]-N-(3,3,3-trifluoro-2-hydroxypropyl)-1,4,4α,5,6,7-hexahydrocyclopenta[f]indazole-5-carboxamide]	10.3%	274 nM	32.8%	43.1%	> 5%	362 nM	0.9 nM		
COc1ccccc1CCN(CC(O)C(F)(F)F)C(=O)[C@H]1CCC2=Cc3c(cnn3-c3ccc(F)cc3)C[C@@]21C (stereo partly drawn) [Compound 83, (4αR,5S)-1-(4-fluorophenyl)-N-[2-(2-methoxyphenyl)ethyl] -4α-methyl-N-(3,3,3-trifluoro-2-hydroxypropyl)-1,4,4α,5,6,7-hexahydrocyclopenta[f]indazole-5-carboxamide]	21.6%	366 nM	35.3%	56.9%	> 5%	293 nM	2.2 nM		
C[C@]12Cc3cnn(-c4ccc(F)cc4)c3C=C1CC[C@@H]2C(=O)N(CCc1ccccc1F)CC(O)C(F)(F)F (stereo partly drawn) [Compound 84, (4αR,5S)-1-(4-fluorophenyl)-N-[2(2-fluorophenyl)ethyl]-4α-methyl-N-(3,3,3-trifluoro-2-hydroxypropyl)-1,4,4α,5,6,7-hexahydrocyclopenta[f]indazole-5-carboxamide]		188 nM	25.7%		> 5%	191 nM	0.8 nM	43.7%	69.4%
Cc1ccc(CCN(CC(O)CC(F)(F)F)C(=O)[C@H]2CCC3=Cc4c(cnn4-c4ccc(F)cc4)C[C@@]32C)cc1 (stereo partly drawn) [Compound 85, (4αR,5S)-1-(4-fluorophenyl)-4α-methyl-N-[2-(4-methylphenyl)ethyl]-N-(4,4,4-trifluoro-2-hydroxybutyl)-1,4,4α,5,6,7-hexahydrocyclopenta[f]indazole-5-carboxamide]	14.2%	399 nM	31.1%	45.3%	> 5%	818 nM	3.5 nM		
COc1ccccc1CCN(CC(O)CC(F)(F)F)C(=O)[C@H]1CCC2=Cc3c(cnn3-c3ccc(F)cc3)C[C@@]21C (stereo partly drawn) [Compound 86, (4αR,5S)-1-(4-fluorophenyl)-N-[2-(2-methoxyphenyl)ethyl]-4α-methyl-N-(4,4,4-trifluoro-2-hydroxybutyl)-1,4,4α,5 ,6,7-hexahydrocyclopenta[f]indazole-5-carboxamide]	18.8%	412 nM	35.1%	53.9%	> 5%	869 nM	11.5 nM		
